Data as given in ChEMBL document CHEMBL6092167, “Phosphorylation as an Effective Tool to Improve Stability and Reduce Toxicity of Antimicrobial Peptides” (J Med Chem, 2024).
Active and inactive are the calls of the source. The rule behind the calls is not given here. Positions of bridges follow the written chain, without caps; N, C: chain ends. Non-standard residues stand in square brackets, D forms with d. Residues, ends and D or L forms follow the SMILES beside them. *: point of attachment. X1 = CC[C@H](C)CCCCC(=O)*; dDab = NCC[C@@H](N)C(=O)O; Dab = NCC[C@H](N)C(=O)O

What was measured:
[1] = Hemolytic activity in mouse erythrocyte incubated for 1 hr by microplate reader assay; assay type: toxicity, cell-based
[2] = Cytotoxicity against HEK293T cells incubated for 1 hr by fluorescence based microplate reader assay; assay type: toxicity, cell-based, HEK-293T; conditions: human
[3] = Toxicity in ip dosed BALB/c mouse assessed as respiratory depression at LD50 dose measured within 1 hr by Karber method; assay type: organism-based; conditions: in vivo
[4] = Toxicity in ip dosed BALB/c mouse assessed as rapid death at LD50 dose measured within 1 hr by Karber method; assay type: organism-based; conditions: in vivo
[5] = Toxicity in ip dosed BALB/c mouse assessed as lateral recumbency at LD50 dose measured within 1 hr by Karber method; assay type: organism-based; conditions: in vivo
[6] = Toxicity in ip dosed BALB/c mouse assessed as convulsions at LD50 dose measured within 1 hr by Karber method; assay type: organism-based; conditions: in vivo
[7] = Toxicity in ip dosed BALB/c mouse assessed as lusterless hair at LD50 dose measured within 1 hr by Karber method; assay type: organism-based; conditions: in vivo
[8] = Toxicity in ip dosed BALB/c mouse assessed as sharp breathing at LD50 dose measured within 1 hr by Karber method; assay type: organism-based; conditions: in vivo
[9] = Toxicity in ip dosed BALB/c mouse measured after 14 days; assay type: organism-based; conditions: in vivo, time 14 day
[10] = Toxicity in ip dosed BALB/c mouse assessed as hemorrhage in lung at LD50 dose by H and E staining based assay; assay type: organism-based; conditions: in vivo
[11] = Toxicity in ip dosed BALB/c mouse assessed as inflammatory cell infiltration in lung at LD50 dose by H and E staining based assay; assay type: organism-based; conditions: in vivo
[12] = Toxicity in ip dosed BALB/c mouse assessed as hemorrhage in kidney at LD50 dose by H and E staining based assay; assay type: organism-based; conditions: in vivo
[13] = Toxicity in ip dosed BALB/c mouse assessed as inflammatory cell infiltration in kidney at LD50 dose by H and E staining based assay; assay type: organism-based; conditions: in vivo
[14] = Toxicity in ip dosed BALB/c mouse assessed as alveolar constriction at LD50 dose by H and E staining based assay; assay type: organism-based; conditions: in vivo
[15] = Toxicity in ip dosed BALB/c mouse assessed as pulmonary congestion at LD50 dose by H and E staining based assay; assay type: organism-based; conditions: in vivo
[16] = Toxicity in ip dosed BALB/c mouse assessed as renal cell swelling at LD50 dose by H and E staining based assay; assay type: organism-based; conditions: in vivo
Klebsiella pneumoniae [17] = test: Antibacterial activity against Klebsiella pneumoniae 700603 preincubated for 6 hrs in presence of trypsin followed by heat inactivation for 15 mins prior to bacterial addition and measured after 18 to 24 hrs by microplate reader assay; assay type: functional, organism-based; conditions: time 18-24 hrs
Staphylococcus aureus [18] = test: Antibacterial activity against Staphylococcus aureus ATCC 25923 preincubated for 6 hrs in presence of trypsin followed by heat inactivation for 15 mins prior to bacterial addition and measured after 18 to 24 hrs by microplate reader assay; assay type: functional, organism-based; conditions: time 18-24 hrs
Klebsiella pneumoniae [19] = test: Antibacterial activity against Klebsiella pneumoniae 700603 preincubated for 6 hrs in presence of chymotrypsin followed by heat inactivation for 15 mins prior to bacterial addition and measured after 18 to 24 hrs by microplate reader assay; assay type: functional, organism-based; conditions: time 18-24 hrs
Staphylococcus aureus [20] = test: Antibacterial activity against Staphylococcus aureus ATCC 25923 preincubated for 6 hrs in presence of chymotrypsin followed by heat inactivation for 15 mins prior to bacterial addition and measured after 18 to 24 hrs by microplate reader assay; assay type: functional, organism-based; conditions: time 18-24 hrs
Pseudomonas aeruginosa [21] = test: Antibiofilm activity against Pseudomonas aeruginosa ATCC 27853 assessed as eradication of preformed biofilms at 4 times MIC incubated for 24 hrs by crystal violet staining based assay; assay type: functional, organism-based
Escherichia coli [22] = test: Antibiofilm activity against Escherichia coli ATCC 25922 assessed as eradication of preformed biofilms at 4 times MIC incubated for 24 hrs by crystal violet staining based assay; assay type: functional, organism-based
Klebsiella pneumoniae [23] = test: Antibiofilm activity against Klebsiella pneumoniae ATCC 700603 assessed as eradication of preformed biofilms at 4 times MIC incubated for 24 hrs by crystal violet staining based assay; assay type: functional, organism-based
Klebsiella pneumoniae [24] = test: Antibacterial activity against Klebsiella pneumoniae ATCC 700603 infected in BALB/c mouse lung infection model assessed as reduction in hepatic hemorrhage at 2.46 mg/kg, ip administered twice daily for 3 days and measured after 7 days; assay type: functional, organism-based; conditions: time 10.0 day
Klebsiella pneumoniae [25] = test: Antibacterial activity against Klebsiella pneumoniae ATCC 700603 infected in BALB/c mouse lung infection model assessed as reduction in alveolar contraction at 2.46 mg/kg, ip administered twice daily for 3 days and measured after 7 days; assay type: functional, organism-based; conditions: time 10.0 day
Klebsiella pneumoniae [26] = test: Antibacterial activity against Klebsiella pneumoniae ATCC 700603 infected in BALB/c mouse lung infection model assessed as reduction in pulmonary tissue bleeding at 2.46 mg/kg, ip administered twice daily for 3 days and measured after 7 days; assay type: functional, organism-based; conditions: time 10.0 day
Staphylococcus aureus [27] = test: Antibacterial activity against methicillin resistant Staphylococcus aureus ATCC 33591 incubated for 18 to 24 hrs by broth microdilution method; assay type: functional; conditions: time 18-24 hrs
Staphylococcus aureus [28] = test: Antibacterial activity against methicillin resistant Staphylococcus aureus 48 incubated for 18 to 24 hrs by broth microdilution method; assay type: functional; conditions: time 18-24 hrs
Staphylococcus aureus [29] = test: Antibacterial activity against Staphylococcus aureus 794 incubated for 18 to 24 hrs by broth microdilution method; assay type: functional; conditions: time 18-24 hrs
Escherichia coli [30] = test: Antibacterial activity against Escherichia coli 780 incubated for 18 to 24 hrs by broth microdilution method; assay type: functional; conditions: time 18-24 hrs
Escherichia coli [31] = test: Antibacterial activity against Escherichia coli 850 incubated for 18 to 24 hrs by broth microdilution method; assay type: functional; conditions: time 18-24 hrs
Pseudomonas aeruginosa [32] = test: Antibacterial activity against Pseudomonas aeruginosa 119 incubated for 18 to 24 hrs by broth microdilution method; assay type: functional; conditions: time 18-24 hrs
Staphylococcus aureus [33] = test: Antibacterial activity against Staphylococcus aureus ATCC 25923 incubated for 18 to 24 hrs by broth microdilution method; assay type: functional; conditions: time 18-24 hrs
Bacillus subtilis = test: Antibacterial activity against Bacillus subtilis ATCC 23857 incubated for 18 to 24 hrs by broth microdilution method; assay type: functional; conditions: time 18-24 hrs
Escherichia coli [34] = test: Antibacterial activity against Escherichia coli ATCC 25922 incubated for 18 to 24 hrs by broth microdilution method; assay type: functional; conditions: time 18-24 hrs
Pseudomonas aeruginosa [35] = test: Antibacterial activity against Pseudomonas aeruginosa ATCC 27853 incubated for 18 to 24 hrs by broth microdilution method; assay type: functional; conditions: time 18-24 hrs
Klebsiella pneumoniae [36] = test: Antibacterial activity against Klebsiella pneumoniae ATCC 700603 incubated for 18 to 24 hrs by broth microdilution method; assay type: functional; conditions: time 18-24 hrs
Acinetobacter baumannii = test: Antibacterial activity against Acinetobacter baumannii ATCC 19606 incubated for 18 to 24 hrs by broth microdilution method; assay type: functional; conditions: time 18-24 hrs
Staphylococcus aureus [37] = test: Antibacterial activity against Staphylococcus aureus ATCC 25923 assessed as fold increase in MIC in presence of Na+; assay type: functional
Staphylococcus aureus [38] = test: Bactericidal activity against Staphylococcus aureus ATCC 25923 at 2 times MIC incubated for 24 hrs by time kill assay; assay type: functional
Klebsiella pneumoniae [39] = test: Synergistic antibacterial activity against Klebsiella pneumoniae ATCC 700603 assessed as fractional inhibitory concentration index at 1/4 to 4 times MIC incubated for 18 to 24 hrs in presence of ciprofloxacin by checkerboard assay; assay type: functional; conditions: time 18-24 hrs
Klebsiella pneumoniae [40] = test: Additive antibacterial activity against Klebsiella pneumoniae ATCC 700603 assessed as fractional inhibitory concentration index at 1/4 to 4 times MIC incubated for 18 to 24 hrs in presence of kanamycin by checkerboard assay; assay type: functional; conditions: time 18-24 hrs
Klebsiella pneumoniae [41] = test: Drug resistance development in Klebsiella pneumoniae ATCC 700603 assessed as fold increase in MIC measured after 20 passage; assay type: functional

CC(C)CCCCC(=O)N[C@@H](CCN)C(=O)N[C@H](C(=O)N[C@@H](CCN)C(=O)N[C@H]1CCNC(=O)[C@H]([C@@H](C)O)NC(=O)[C@H](CCN)NC(=O)[C@H](CCN)NC(=O)[C@H](CC(C)C)NC(=O)[C@@H](Cc2ccccc2)NC(=O)[C@H](CCN)NC1=O)[C@@H](C)O.CC[C@H](C)CCCCC(=O)N[C@@H](CCN)C(=O)N[C@H](C(=O)N[C@@H](CCN)C(=O)N[C@H]1CCNC(=O)[C@H]([C@@H](C)O)NC(=O)[C@H](CCN)NC(=O)[C@H](CCN)NC(=O)[C@H](CC(C)C)NC(=O)[C@@H](Cc2ccccc2)NC(=O)[C@H](CCN)NC1=O)[C@@H](C)O (X1-[Dab]T[Dab][Dab][Dab][dF]L[Dab][Dab]T; lactam 4-C) [listing 1 of 2 here]
MHC [1]: > 256 µM | CC50 at 1 h [2]: 128 µM | Activity [3]: Toxic | Activity [4]: Toxic | Activity [5]: Toxic | Activity [6]: Toxic | Activity [7]: Toxic | Activity [8]: Toxic | LD50 at 336 h [9]: 25.7 mg/kg | Activity [10]: Toxic | Activity [11]: Toxic | Activity [12]: Toxic | Activity [13]: Toxic | Activity [14]: Toxic | Activity [15]: Toxic | Activity [16]: Toxic

CC(C)CCCCC(=O)N[C@@H](CCN)C(=O)N[C@H](C(=O)N[C@@H](CCN)C(=O)N[C@H]1CCNC(=O)[C@H]([C@@H](C)O)NC(=O)[C@H](CCN)NC(=O)[C@H](CCN)NC(=O)[C@H](CC(C)C)NC(=O)[C@@H](Cc2ccccc2)NC(=O)[C@@H](CCN)NC1=O)[C@@H](C)O.CC[C@H](C)CCCCC(=O)N[C@@H](CCN)C(=O)N[C@H](C(=O)N[C@@H](CCN)C(=O)N[C@H]1CCNC(=O)[C@H]([C@@H](C)O)NC(=O)[C@H](CCN)NC(=O)[C@H](CCN)NC(=O)[C@H](CC(C)C)NC(=O)[C@@H](Cc2ccccc2)NC(=O)[C@@H](CCN)NC1=O)[C@@H](C)O (X1-[Dab]T[Dab][Dab][dDab][dF]L[Dab][Dab]T; lactam 4-C)
Activity (Klebsiella pneumoniae [17]): Active; High Enzymatic Stability | Activity (Staphylococcus aureus [18]): Active; High Enzymatic Stability | Activity (Klebsiella pneumoniae [19]): Active; High Enzymatic Stability | Activity (Staphylococcus aureus [20]): Active; High Enzymatic Stability | Activity (Pseudomonas aeruginosa [21]): Active | Activity (Escherichia coli [22]): Active | Activity (Klebsiella pneumoniae [23]): Active | Activity (Klebsiella pneumoniae [24]): inactive | Activity (Klebsiella pneumoniae [25]): inactive | Activity (Klebsiella pneumoniae [26]): inactive

CC(C)CCCCC(=O)N[C@@H](CCN)C(=O)N[C@H](C(=O)N[C@@H](CCN)C(=O)N[C@H]1CCNC(=O)[C@H]([C@@H](C)O)NC(=O)[C@H](CCN)NC(=O)[C@H](CCN)NC(=O)[C@H](CC(C)C)NC(=O)[C@@H](Cc2ccccc2)NC(=O)[C@H](CCN)NC1=O)[C@@H](C)O.CC[C@H](C)CCCCC(=O)N[C@@H](CCN)C(=O)N[C@H](C(=O)N[C@@H](CCN)C(=O)N[C@H]1CCNC(=O)[C@H]([C@@H](C)O)NC(=O)[C@H](CCN)NC(=O)[C@H](CCN)NC(=O)[C@H](CC(C)C)NC(=O)[C@@H](Cc2ccccc2)NC(=O)[C@H](CCN)NC1=O)[C@@H](C)O (X1-[Dab]T[Dab][Dab][Dab][dF]L[Dab][Dab]T; lactam 4-C) [listing 2 of 2 here]
MIC (Staphylococcus aureus [27]): 16 µM | MIC (Staphylococcus aureus [28]): 16 µM | MIC (Staphylococcus aureus [29]): 8 µM | MIC (Escherichia coli [30]): 2 µM | MIC (Escherichia coli [31]): 2 µM | MIC (Pseudomonas aeruginosa [32]): 2 µM | MIC (Staphylococcus aureus [33]): 16 µM | MIC (Bacillus subtilis): 4 µM | MIC (Escherichia coli [34]): 4 µM | MIC (Pseudomonas aeruginosa [35]): 2 µM | MIC (Klebsiella pneumoniae [36]): 4 µM | MIC (Acinetobacter baumannii): 2 µM | fold change (FC) (Staphylococcus aureus [37]): 4 | Activity (Staphylococcus aureus [38]): 100% | fractional inhibitory concentration index (FICI) (Klebsiella pneumoniae [39]): 0.313 | fractional inhibitory concentration index (FICI) (Klebsiella pneumoniae [40]): 0.313 | fold change (FC) (Klebsiella pneumoniae [41]): 64
